Measurements from patent US20260250318A1, “COMPOSITIONS AND METHODS FOR CROSSING THE BLOOD BRAIN BARRIER” (VOYAGER THERAPEUTICS, INC., priority 2022, published 2026).

Tests used:
Settings in all cases: synthetic library passage 3, intravenous, relative to wild-type AAV9
brain [1] = assay: NGS fold enrichment of synthetic library (passage 3) in C57Bl/6 mice, first cross-species screen; assay type: in vivo
Summary of the method: (§1)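 Passage-3 synthetic capsid library given intravenously […] to NHPs (2-4 years) and BALB/c or C57Bl/6 mice (n=3, 6-8 weeks). After e.g. 28 days, tissue RNA was RT-PCR amplified and NGS-sequenced; values are fold enrichment of each variant relative to wild-type AAV9.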

[2] = test system: brain, spinal cord, and DRG of the NHPs; assay: NGS fold enrichment of synthetic library (passage 3) in NHPs, first cross-species screen; assay type: in vivo, cynomolgus macaques (Macaca fascicularis)
Summary of the method: as §1

brain [3] = assay: NGS fold enrichment of synthetic library (passage 3) in BALB/c mice, first cross-species screen; assay type: in vivo
Summary of the method: as §1

[4] = RNA from brain of C57Bl/6 mice, NGS
[5] = RNA from spinal cord of NHPs, NGS
[6] = RNA from brain of BALB/c mice, NGS

Sequence | Fold enrichment over AAV9 in the brain of Mice (C57Bl/6) (brain [1]; RNA NGS, brain of C57Bl/6 mice) [fold] | Fold enrichment over AAV9 in the brain of NHPs ([2]; RNA NGS, brain of NHPs) [fold] | Fold enrichment over AAV9 in the spinal cord of NHPs ([2]; RNA NGS, spinal cord of NHPs) [fold] | Fold enrichment over AAV9 in the brain of Mice (BALB/c) (brain [3]; RNA NGS, brain of BALB/c mice) [fold] | Fold enrichment over AAV9 in the brain of Mice (C57Bl/6) (brain [1]; [4]) [fold] | Fold enrichment over AAV9 in the brain of NHPs ([2]; RNA from brain of NHPs, NGS) [fold] | Fold enrichment over AAV9 in the spinal cord of NHPs [2, 5] [fold] | Fold enrichment over AAV9 in the brain of Mice (BALB/c) (brain [3]; [6]) [fold]
GSGQNQQTAIYRNI | 0.818 | 1.854 | 2.207 | 1.437 | – | – | – | –
GSGQNQQTALEKSL | 0.625 | 1.092 | 0.000 | 0.702 | – | – | – | –
GSGQNQQTALGVKC | 1.378 | 1.835 | 1.343 | 1.014 | – | – | – | –
GSGQNQQTALYNNT | – | – | – | – | 0.660 | 1.307 | 0.862 | 0.726
GSGQNQQTAMRSTT | 0.656 | 1.581 | 2.588 | 0.665 | – | – | – | –
GSGQNQQTGLRQQT | 1.217 | 1.533 | 2.120 | 1.103 | – | – | – | –
GSGQNQQTGMSSVK | 1.451 | 2.109 | 4.544 | 0.679 | – | – | – | –
GSGQNQQTGNPKHT | 1.391 | 1.504 | 5.973 | 1.139 | – | – | – | –
GSGQNQQTGQATHN | 0.877 | 0.996 | 2.199 | 0.527 | – | – | – | –
GSGQNQQTGQHMRV | – | – | – | – | 1.839 | 1.286 | 4.161 | 1.635
GSGQNQQTGSSSRV | – | – | – | – | 0.995 | 1.176 | 0.580 | 1.128
GSGQNQQTHGGLRD | 1.913 | 1.519 | 6.487 | 1.298 | – | – | – | –
GSGQNQQTHPSPCT | 1.120 | 1.510 | 1.003 | 0.546 | – | – | – | –
GSGQNQQTKVGHSA | 0.669 | 1.079 | 1.256 | 1.019 | – | – | – | –
GSGQNQQTLPSLSL | 0.527 | 1.084 | 1.758 | 0.175 | – | – | – | –
GSGQNQQTLRGSLE | – | – | – | – | 0.853 | 1.179 | 1.812 | 0.354
GSGQNQQTLSKPWT | 0.845 | 1.743 | 0.253 | 0.733 | – | – | – | –
